Measurements: patent publication US8901126B2, “Substituted imidazo[1,5-A]quinoxalin-4-ones are useful for preventing or treating storage dysfunction, voiding dysfunction and bladder/urethral diseases” (priority 2010, dated 2014)
Where a name gives a salt, the structure may show the parent alone.

Key:
PDE9 = biological target: T1, PDE9 (Homo sapiens, UniProt O76083); test: PDE9-inhibiting activity (SPA, 3H-cGMP degradation); assay type: biochemical; details: PDE9-inhibiting activity (IC50 values), cGMP 1 μM, 30° C.
T1 construct: made in house
Protocol: The PDE9 used in the present experiment was expressed/purified by the method as in, for example, Guipponi et al., and Fisher et., al. (Fisher, D. A., et al., J. Biol. Chem., 273: pp. 15559-15564 (1998), Guipponi, M., et al., Hum. Genet., 103: pp. 386-392 (1998)).
(2) Evaluation of PDE9-Inhibiting Activity
The PDE9-inhibiting activity was measured by the following method. That is, to a buffer solution containing tris(hydroxymethyl)aminomethane-hydrochloric acid (40 mM, pH 8.0), magnesium chloride (5 mM), and 2-mercaptoethanol (4 mM) were added cGMP (1 μM) and ^3H-cGMP (0.33 μCi/ml) to give a substrate buffer solution. A test substance solution and an enzyme solution which had been adjusted to an optimal concentration were added thereto to perform a reaction at 30° C. The enzyme reaction was stopped by the addition of Scintillation Proximity Assay (SPA) Beads (Perkin Elmer, USA) containing 5 mM 3-isobutyl-1-methylxanthine (IBMX). For the enzyme activity, the amount of 5′-GMP, which is a reaction degradation product bound to SPA beads, was measured with a TopCount microplate reader (Hewlett Packard, USA).
The inhibitory rate was calculated by taking the radioactivity of the control containing no test substance as (A), taking the radioactivity of the blank containing no enzyme as (B), and taking the radioactivity of the test substance as (C), and using the following equation. Inhibitory rate=100−{(C)−(B)/(A)−(B)}×100(%)

[1] = tested on: urethra relaxation response; test: Simultaneous measurement model for rat bladder contraction/urethra relaxation responses; assay type: in vivo; details: female SD rat, urethane anesthesia, 1 mg/kg, intravenously or intraduodenally
Excerpt: That is, a female Sprague-Dawley (SD) rat (Charles River Laboratories Japan, Inc.) was anesthetized with urethane, and the bladder was exposed by a midline incision in the lower abdomen. A double lumen cannula (a cannula having a dual structure by PE190 and PE50) from the bladder apex was inserted into the bladder, and the bladder apex and the cannula were fixed by sutures at a point where the tip reached the proximal urethra. While infusing physiological saline into the urethra through the outer cannula, the urethral inner pressure was measured by a pressure transducer through the inner cannula with a saline solution infused into the urethra through the outer cannula. On the other hand, a single cannula (PE50) was inserted into the bladder from the bladder apex and placed therein. The inner pressure of the bladder was measured through this cannula. After a postoperative stabilization period had passed, physiological saline was infused into the bladder through the cannula of the bladder apex to cause a bladder contraction reaction, and thus cause a urethra relaxation response accompanying the bladder contraction reflex. The test substance was administered intravenously or intraduodenally.

T1 sequence (O76083 whole entry): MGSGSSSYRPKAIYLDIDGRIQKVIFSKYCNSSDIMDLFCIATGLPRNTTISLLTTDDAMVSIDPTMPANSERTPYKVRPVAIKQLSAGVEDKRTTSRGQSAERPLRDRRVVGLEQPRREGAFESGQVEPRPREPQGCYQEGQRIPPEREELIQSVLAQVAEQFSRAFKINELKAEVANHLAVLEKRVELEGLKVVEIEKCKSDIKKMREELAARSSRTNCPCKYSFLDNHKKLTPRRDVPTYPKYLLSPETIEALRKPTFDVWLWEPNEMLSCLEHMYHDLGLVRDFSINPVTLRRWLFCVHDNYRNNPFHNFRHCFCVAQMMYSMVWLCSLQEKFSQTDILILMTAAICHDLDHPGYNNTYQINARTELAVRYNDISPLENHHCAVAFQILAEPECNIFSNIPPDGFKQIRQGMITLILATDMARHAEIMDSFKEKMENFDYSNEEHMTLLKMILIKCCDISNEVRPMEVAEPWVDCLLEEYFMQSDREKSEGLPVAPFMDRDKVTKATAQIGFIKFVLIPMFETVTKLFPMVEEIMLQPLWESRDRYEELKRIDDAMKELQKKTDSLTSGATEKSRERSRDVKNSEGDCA

SMILES	IC50 (PDE9) [nM]	ratio with increased urethra relaxation time during voiding (increase relative to the solvent administration group (vs vehicle)) [1] [%]	melting point
Cc1cc2c(cc1C(=O)N1CCc3cc(F)c(F)cc31)[nH]c(=O)c1cnc(C3CCOC3)n12.Cl (single isomer, unassigned) [Example 30(b)]	5.8	147	
COCc1cc2c(cc1C(=O)N1Cc3c(F)ccc(F)c3C1)[nH]c(=O)c1cnc(C3CCOC3)n12.Cl (single isomer, unassigned) [Example 45(b)]	8.9	141	
Cc1cc2c(cc1C(=O)N1CC(C)c3cc(Cl)ccc31)[nH]c(=O)c1cnc(C3CCOCC3)n12.Cl (stereo not drawn) [Example 31]	1.4	149	221 to 224 °C
COc1cc2c(cn1)N(C(=O)c1cc3[nH]c(=O)c4cnc(C5CCOC5)n4c3cc1C)CC2 (single isomer, unassigned) [Example 27(b)]	26	181	
COc1cc2c(cn1)N(C(=O)c1cc3[nH]c(=O)c4cnc(C5CCOCC5)n4c3cc1Cl)CC2 [Example 21]	22		314 to 316 °C (dec.)
COCc1cc2c(cc1C(=O)N1CCc3cc(Br)cnc31)[nH]c(=O)c1nnc(CC3CC3)n12 [Example 44]	6.1		168 to 170 °C
COCc1cc2c(cc1C(=O)N1CCc3cc(Br)cnc31)[nH]c(=O)c1cnc(C3CCOC3)n12 (single isomer, unassigned) [Example 43(b)]	2.8	138	
O=C(c1cc2[nH]c(=O)c3cnc(C4CCOCC4)n3c2cc1OCC1CCOC1)N1CCc2cc(Br)cnc21 (stereo not drawn) [Example 1, 7-[(5-bromo-2,3-dihydro-1H-pyrrolo[2,3-b]pyridin-1-yl)carbonyl]-8-(tetrahydrofuran-3-ylmethoxy)-1-(tetrahydro-2H-pyran-4-yl)imidazo[1,5-a]quinoxalin-4(5H)-one]	3.5		321 to 324 °C (dec.)
Cc1cc2c(cc1C(=O)N1CCc3cc(Br)cnc31)[nH]c(=O)c1cnc(C3CCCOC3)n12 (stereo not drawn) [Example 47]	2.1		300 to 305 °C (dec.)
Cc1cc2c(cc1C(=O)N1CCc3cc(Br)cnc31)[nH]c(=O)c1nnc(CC3CC3)n12 [Example 24]	17		268 to 271 °C
COCc1cc2c(cc1C(=O)N1CCc3cc(OC)ncc31)[nH]c(=O)c1cnc(C3CCOC3)n12 (single isomer, unassigned; (+)) [Example 4(b), (+)-7-[(5-methoxy-2,3-dihydro-1H-pyrrolo[2,3-c]pyridin-1-yl)carbonyl]-8-(methoxymethyl)-1-(tetrahydrofuran-3-yl)imidazo[1,5-a]quinoxalin-4(5H)-one dihydrochloride]	11	167	
Cc1cc2c(cc1C(=O)N1CC(C)c3cc(Cl)ccc31)[nH]c(=O)c1nnc(C3CCOCC3)n12.Cl (stereo not drawn) [Example 32]	2.6		231 to 234 °C
COc1cc2c(cc1C(=O)N1CCc3cc(Br)cnc31)[nH]c(=O)c1cnc(C3CCOCC3)n12 [Example 23]	4.9		316 to 319 °C (dec.)
COc1cc2c(cn1)N(C(=O)c1cc3[nH]c(=O)c4cnc(C5CCOCC5)n4c3cc1F)CC2 [Example 2, 8-fluoro-7-[(5-methoxy-2,3-dihydro-1H-pyrrolo[2,3-c]pyridin-1-yl)carbonyl]-1-(tetrahydro-2H-pyran-4-yl)imidazo[1,5-a]quinoxalin-4(5H)-one]	51		275 to 277 °C
Cc1cc2c(cc1C(=O)N1CCc3cc(Br)cnc31)[nH]c(=O)c1cnc(C3CCOC3)n12 (single isomer, unassigned) [Example 29(b)]	5.6	149	
COCc1cc2c(cc1C(=O)N1CCc3cc(Br)cnc31)[nH]c(=O)c1nnc(C3CCC3)n12 [Example 41]	18		174 to 176 °C
COCc1cc2c(cc1C(=O)N1Cc3cccc(F)c3C1)[nH]c(=O)c1cnc(C3CCOC3)n12 (stereo not drawn) [Example 42]	13		154 to 156 °C
COc1cc2c(cn1)N(C(=O)c1cc3[nH]c(=O)c4cnc(C5CCCOC5)n4c3cc1C)CC2 (stereo not drawn) [Example 3, 7-[(5-methoxy-2,3-dihydro-1H-pyrrolo[2,3-c]pyridin-1-yl)carbonyl]-8-methyl-1-(tetrahydro-2H-pyran-3-yl)imidazo[1,5-a]quinoxalin-4(5H)-one]	22		297 to 299 °C
COC1CC(c2nnc3c(=O)[nH]c4cc(C(=O)N5CCc6cc(Cl)ccc65)c(C)cc4n23)C1.Cl (stereo not drawn) [Example 8]	2.8		200 to 202 °C
COCc1cc2c(cc1C(=O)N1CCc3cc(C)cnc31)[nH]c(=O)c1cnc(C3CCOC3)n12 (single isomer, unassigned) [Example 25(b)]	14	131	
Cl.O=C(c1cc2[nH]c(=O)c3cnc(C4CCOCC4)n3c2cc1OCC1CCOC1)N1CCc2cc(F)ccc21 (stereo not drawn) [Example 10]	4.5		177 to 180 °C
CCc1cnc2c(c1)CCN2C(=O)c1cc2[nH]c(=O)c3cnc(C4CCOCC4)n3c2cc1C [Example 13]	14		331 to 333 °C
